Consider three molecules from ChEMBL document CHEMBL1201862, “PubChem BioAssay data set” (2004).

The structures appear in SMILES notation. The source made the active and inactive calls. Rule as the data show it, for most assays here: actives have a measured EC50 and inactives only a lower limit.

Experiment [1] in a line: NIH-3T3 fibroblast cytotoxicity, dose response, cytotoxicity control, cell-based, fluorescence, Alamar Blue, secondary assay (AID 2327).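 Also: NIH-3T3 mouse fibroblasts cultured with fluconazole at 8 µg/mL.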 The class given is functional.
Experiment [2] has as its system Streptococcus sp. 'group A'. Put plainly: Streptococcus pyogenes SK(-)GAS viability under kanamycin – luminescence, BacTiterGlo, confirmation, counter-screen for streptokinase expression inhibitor project, dose response (AID 1900). The class given is functional, organism-based. In general terms: A counterscreen serves to expose hits that act by an unwanted route or on another target.

A further experiment addresses Beta-galactosidase (Escherichia coli, UniProt Q8VNN2). Briefly: PubChem AID 485352. The format is functional.
The next experiment concerns the target T1, Streptokinase A (Streptococcus pyogenes serotype M1, UniProt P10520).
T1 sequence (P10520 whole entry): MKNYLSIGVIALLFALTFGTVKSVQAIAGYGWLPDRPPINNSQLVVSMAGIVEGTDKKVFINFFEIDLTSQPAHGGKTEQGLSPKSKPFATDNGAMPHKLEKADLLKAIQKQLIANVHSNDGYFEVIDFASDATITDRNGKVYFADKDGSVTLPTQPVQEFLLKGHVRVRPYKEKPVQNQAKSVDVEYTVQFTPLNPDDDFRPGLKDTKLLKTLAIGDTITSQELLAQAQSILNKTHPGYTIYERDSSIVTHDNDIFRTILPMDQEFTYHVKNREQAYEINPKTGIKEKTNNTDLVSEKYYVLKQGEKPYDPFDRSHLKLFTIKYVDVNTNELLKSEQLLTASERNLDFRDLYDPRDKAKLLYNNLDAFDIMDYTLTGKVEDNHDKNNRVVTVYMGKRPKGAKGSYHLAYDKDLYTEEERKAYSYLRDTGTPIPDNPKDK
Briefly: viability-normalized secreted streptokinase activity reduction – plasminogen activation absorbance, OD405, dose response (AID 1914).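 Also: secreted streptokinase activity via plasminogen activation per viability signal from cell pellet.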 The format is functional, Streptococcus pyogenes M1 GAS.

A short description of experiment [3]: fluconazole-exposed Candida albicans growth modulators – fluorescence, retest, confirmation (AID 2467). The class given is functional, cell-based.
Experiment [4] is described as follows: Trypanosoma cruzi growth suppression in host cells – NIH3T3 host cells, beta-gal luminescence, confirmation (AID 2044).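 Also: intracellular parasites grown in NIH/3T3 mouse fibroblasts as host cells; luminescent beta-galactosidase reporter signal from transgenic T. cruzi replicating inside host cells; inhibitors lower the luminescence signal.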 The format is functional, cell-based.
Experiment [5] addresses T2, Type-1 angiotensin II receptor (Homo sapiens, UniProt P30556).
T2 sequence (P30556 whole entry): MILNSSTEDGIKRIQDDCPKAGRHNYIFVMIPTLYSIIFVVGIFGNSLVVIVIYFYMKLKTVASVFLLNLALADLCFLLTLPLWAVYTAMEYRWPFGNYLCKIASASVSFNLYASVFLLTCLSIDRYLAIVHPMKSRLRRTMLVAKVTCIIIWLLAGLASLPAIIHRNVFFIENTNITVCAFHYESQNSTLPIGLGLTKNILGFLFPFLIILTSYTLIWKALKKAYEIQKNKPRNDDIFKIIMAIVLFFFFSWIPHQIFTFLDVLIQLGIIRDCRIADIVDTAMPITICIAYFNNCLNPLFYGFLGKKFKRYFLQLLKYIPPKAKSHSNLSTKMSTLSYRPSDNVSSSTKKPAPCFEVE
Put plainly: antagonism of angiotensin II type 1 receptor – cell-based, uHTS hits, selectivity assay for APJ receptor antagonist project, dose response (AID 463214).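 Also: antagonist potency against angiotensin II stimulated AT1 response.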 The format is functional.

Experiment [6] can be described thus: NIH3T3 cell viability loss – ATP luminescence, mouse fibroblasts, counter-screen, dose response (AID 2010).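 Also: cells exposed to compound for about 90 hours before reading.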 The format is functional, cell-based.
The subject of another experiment is Streptococcus. Briefly: GAS UMAA2166 growth inhibition – luminescence, BacTiterGlo, counter-screen for streptokinase expression inhibitor project, dose response (AID 1915).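 Also: potency for reduction of bacterial viability or growth.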 The class given is functional, organism-based.
Experiment [7] addresses T3, Heat shock factor protein 1 (Mus musculus, UniProt P38532).
T3 sequence (P38532 whole entry): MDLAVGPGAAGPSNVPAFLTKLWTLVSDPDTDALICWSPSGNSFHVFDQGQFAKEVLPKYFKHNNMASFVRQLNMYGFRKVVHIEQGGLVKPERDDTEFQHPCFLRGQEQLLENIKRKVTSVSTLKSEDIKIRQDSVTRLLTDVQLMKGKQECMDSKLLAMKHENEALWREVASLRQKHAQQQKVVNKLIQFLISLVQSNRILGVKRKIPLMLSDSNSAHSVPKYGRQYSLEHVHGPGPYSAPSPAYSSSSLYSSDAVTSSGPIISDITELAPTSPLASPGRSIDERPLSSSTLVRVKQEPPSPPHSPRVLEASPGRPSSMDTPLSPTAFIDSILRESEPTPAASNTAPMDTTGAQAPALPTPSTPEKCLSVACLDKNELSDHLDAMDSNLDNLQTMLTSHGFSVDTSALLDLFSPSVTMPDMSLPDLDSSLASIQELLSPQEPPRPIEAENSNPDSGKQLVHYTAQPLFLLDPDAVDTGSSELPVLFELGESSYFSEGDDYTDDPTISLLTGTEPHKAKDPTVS
Briefly: enhancement of HSF1-driven luciferase signal – cell-based, NIH3T3, luminescence, dose retest, confirmation (AID 435004).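 Also: stress induced by proteasome inhibitor MG132 added 30 min after compound; luciferase reporter driven by HSF1 response element in NIH3T3 cells; actives raise luminescence as potentiators of the MG132 stress response.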 The class given is functional.

A further experiment concerns H9c2. Put plainly: cells. The class given is functional, cell-based. Particulars: Rattus norvegicus, H9c2, Myocardium.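 Also: confirmatory concentration-response retest of ultra-high-throughput screening hits for modulation of myocardial damage; cell death induced by hydrogen peroxide oxidative stress; compound pretreatment for 60 min then peroxide exposure for 2 h; potency is for protecting the cells against peroxide damage rather than for killing them.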
A short description of experiment [8]: reduction of Shn3 3'UTR-driven luciferase in osteoblasts – cell-based, Clone20 osteoblasts, firefly luciferase, cherry-picked, dose response (AID 624132).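 Also: firefly luciferase luminescence from reporter carrying the Shn3 3'UTR in osteoblasts.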 The format is functional.
The nature of experiment [9]: loss of viability in HepG2 cells – cell-based, CellTiter-Glo, cherry-picked, cytotoxicity control for Shn3 inhibitor project, dose response (AID 624134). The class given is functional.
For experiment [10], the target named is T4, Serine/threonine-protein phosphatase (Candida dubliniensis (strain CD36 / CBS 7987 / NCPF 3949 / NRRLY-17841) (Yeast), UniProt B9W6M3).
T4 sequence (B9W6M3 whole entry): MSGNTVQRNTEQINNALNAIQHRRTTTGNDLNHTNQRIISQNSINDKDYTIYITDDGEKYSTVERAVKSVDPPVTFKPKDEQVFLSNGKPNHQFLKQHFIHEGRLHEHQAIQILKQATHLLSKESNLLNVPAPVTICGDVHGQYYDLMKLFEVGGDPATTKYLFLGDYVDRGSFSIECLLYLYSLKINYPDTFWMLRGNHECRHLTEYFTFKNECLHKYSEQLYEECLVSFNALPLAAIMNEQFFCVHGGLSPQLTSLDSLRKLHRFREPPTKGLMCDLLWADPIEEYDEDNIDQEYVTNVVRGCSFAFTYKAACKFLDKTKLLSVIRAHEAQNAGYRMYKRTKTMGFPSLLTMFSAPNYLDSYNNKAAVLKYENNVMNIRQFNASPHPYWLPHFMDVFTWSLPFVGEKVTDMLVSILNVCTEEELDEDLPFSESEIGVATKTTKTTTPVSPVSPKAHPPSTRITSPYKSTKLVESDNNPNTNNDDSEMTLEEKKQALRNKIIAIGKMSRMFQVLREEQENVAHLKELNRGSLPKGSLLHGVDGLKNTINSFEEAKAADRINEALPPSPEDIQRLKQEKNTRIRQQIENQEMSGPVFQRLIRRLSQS
Put plainly: blockers of CaCl2-induced CDRE-lacZ signaling – S. cerevisiae, luminescence, secondary, dose response (AID 2388).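 Also: yeast reporter cells carrying a calcineurin-responsive lacZ construct stimulated with calcium chloride; luminescent beta-galactosidase reporter signal in whole cells rather than isolated phosphatase activity; potency for inhibition where a drop in reporter signal means calcineurin blockade.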 The class given is functional, cell-based.

Experiment [11] deals with ATP-dependent molecular chaperone HSP82 (Candida albicans (strain WO-1) (Yeast), UniProt C4YTQ8). Briefly: steroid-induced GRE reporter decrease in yeast – S. cerevisiae, luminescence, Hsp90 inhibitor project, dose response (AID 2400).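 Also: beta-galactosidase luminescence from glucocorticoid response element reporter as proxy for Hsp90 function; inhibitor potency where signal loss means Hsp90 inhibition.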 The class given is functional, cell-based.
Sequence of ATP-dependent molecular chaperone HSP82 (C4YTQ8 whole entry): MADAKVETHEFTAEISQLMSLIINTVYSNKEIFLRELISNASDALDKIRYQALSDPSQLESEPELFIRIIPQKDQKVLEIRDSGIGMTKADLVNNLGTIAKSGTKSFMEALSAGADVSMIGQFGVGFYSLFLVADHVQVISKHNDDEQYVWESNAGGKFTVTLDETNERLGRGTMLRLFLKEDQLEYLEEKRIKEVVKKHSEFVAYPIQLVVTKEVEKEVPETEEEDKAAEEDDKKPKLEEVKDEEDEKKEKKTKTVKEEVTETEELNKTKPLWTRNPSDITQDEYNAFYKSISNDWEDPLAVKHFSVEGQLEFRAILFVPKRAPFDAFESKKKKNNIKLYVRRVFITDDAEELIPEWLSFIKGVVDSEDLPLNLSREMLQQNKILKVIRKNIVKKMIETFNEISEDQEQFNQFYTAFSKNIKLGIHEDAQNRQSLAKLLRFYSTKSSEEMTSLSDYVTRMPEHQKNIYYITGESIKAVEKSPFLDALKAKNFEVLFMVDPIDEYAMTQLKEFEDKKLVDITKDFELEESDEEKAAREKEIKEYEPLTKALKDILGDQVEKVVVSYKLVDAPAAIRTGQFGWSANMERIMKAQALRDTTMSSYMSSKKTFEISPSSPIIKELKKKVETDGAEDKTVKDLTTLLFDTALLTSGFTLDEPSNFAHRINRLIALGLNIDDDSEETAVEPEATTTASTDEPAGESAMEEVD

Sequence of Beta-galactosidase (Q8VNN2 whole entry): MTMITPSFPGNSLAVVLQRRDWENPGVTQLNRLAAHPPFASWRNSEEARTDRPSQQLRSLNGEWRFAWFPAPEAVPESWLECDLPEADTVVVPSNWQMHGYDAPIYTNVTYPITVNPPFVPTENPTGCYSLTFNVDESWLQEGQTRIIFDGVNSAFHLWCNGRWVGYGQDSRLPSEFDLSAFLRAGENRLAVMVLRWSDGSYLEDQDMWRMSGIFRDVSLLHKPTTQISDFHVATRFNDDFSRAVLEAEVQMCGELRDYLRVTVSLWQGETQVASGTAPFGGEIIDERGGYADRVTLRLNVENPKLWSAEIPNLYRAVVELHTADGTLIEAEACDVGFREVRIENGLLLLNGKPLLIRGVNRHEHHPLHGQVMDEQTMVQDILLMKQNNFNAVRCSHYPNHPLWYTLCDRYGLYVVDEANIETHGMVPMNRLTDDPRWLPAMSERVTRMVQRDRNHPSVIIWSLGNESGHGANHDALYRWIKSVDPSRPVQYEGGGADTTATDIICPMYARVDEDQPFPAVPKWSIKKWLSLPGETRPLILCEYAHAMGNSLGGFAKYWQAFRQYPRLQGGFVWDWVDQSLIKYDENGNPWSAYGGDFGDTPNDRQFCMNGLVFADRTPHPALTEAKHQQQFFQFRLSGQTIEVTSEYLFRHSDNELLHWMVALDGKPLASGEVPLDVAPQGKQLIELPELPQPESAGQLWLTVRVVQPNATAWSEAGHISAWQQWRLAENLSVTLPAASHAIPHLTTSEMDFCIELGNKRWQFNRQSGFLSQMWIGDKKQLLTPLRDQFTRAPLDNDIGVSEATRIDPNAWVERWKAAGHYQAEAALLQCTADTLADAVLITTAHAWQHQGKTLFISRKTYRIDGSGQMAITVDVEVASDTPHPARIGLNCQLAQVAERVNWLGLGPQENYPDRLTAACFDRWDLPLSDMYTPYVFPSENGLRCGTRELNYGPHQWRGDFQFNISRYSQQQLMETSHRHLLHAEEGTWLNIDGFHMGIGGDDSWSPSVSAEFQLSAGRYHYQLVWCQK

One may read the EC50 as the concentration that produces a half-maximal response. The term IC50 denotes the concentration at which inhibition is half-maximal. As usually defined, the AC50 is the concentration giving half of the maximal activity seen. In the case of `COc1ccc(NS(=O)(=O)c2ccc3ccccc3c2)c2ncccc12`, the EC50 in [1] is 60.9 µM (active); in experiment [2], 1.03 µM (active); on Beta-galactosidase it was > 40 µM (inactive); at Streptokinase A, > 150 µM (not active); in experiment [3] it was > 38 µM (not active); in [4], 0.688 µM (active). Besides, the EC50 in experiment [6] was 5.55 µM (active); in the experiment on Streptococcus, 4.63 µM (active); in experiment [7] it was 7.48 µM (active). Besides, the IC50 in experiment [5] was 23.1 µM (not active); with H9c2, 11.5 µM (active). Moreover, the AC50 was 4.82 µM (active) in [8] and 69.5 µM (active) in experiment [9].
For the molecule `O=C(Cc1ccc(Cl)cc1)NNC(=S)NC(=O)c1cccs1`, the EC50 was > 160 µM (inactive) in experiment [1], 1.43 µM (active) in experiment [3], > 180 µM (inactive) in [10] and 16.6 µM (active) in experiment [11].
`O=C(CCS(=O)(=O)c1ccc(F)cc1)Nc1nc(-c2ccncc2)cs1`: the EC50 in [1] was 18.3 µM (inconclusive); in experiment [3] it was 1.39 µM (active); in experiment [10], > 180 µM (inactive); in experiment [11] it was 16.5 µM (active).
